A short description of series [1]: Incubation buffer without cells, time 0 (Examples 5-9, 11, 12). As to conditions: no cells, 0 h. In kind it is in vitro ADME. The protocol: (§1) A 100 ml culture of S. griseolus ATCC 11796 in sporulation broth and a 50 ml culture of S. lividans transformed with pCAO400 in YEME broth were prepared and incubated for 24 hours as described. At that time, the S. griseolus culture was split into two 50 ml aliquots into two separate flasks and 25 ml of fresh sporulation broth was added to each and 9 mg of […] was added to one of these cultures to induce cytochrome P450SU1 expression. Fresh YEME broth (25 ml) was added to the S. lividans culture. After an additional 6 hours growth at 30° C., the cells in each culture were harvested as described above, washed twice with MOPS (50 mM, pH 7.2) and recentrifuged. The cell pellets were resuspended in four cell volumes of MOPS (50 mM, pH 7.2) containing 0.2% glucose and about 100 μg/ml of 10004. These cell suspensions were incubated at 30° C. with shaking and aliqouts were taken at 2 and 5.5 hours. The supernatant of each aliquot was analyzed by HPLC and the concentrations of the sulfonylurea compound 10004 and its metabolite 10005 were determined.
(§2) S. lividans transformed respectively with pCAO200SU1-FeS-B#9, pCAO200SU#112and pCAO200 were cultured for 36 hours in 400 ml of YEME broth at 30° C. S. griseolus ATCC 11796 was similarly cultured in 400 ml of sporulation broth. Six hours before harvesting the cells, 150 ml of fresh YEME broth was added to the S. lividans cells, and the S. griseolus cells were split into two 200 ml cultures with 100 ml of fresh sporulation broth added to each. 10001 (36 mg) was added to one of the two S. griseolus cultures to induce cytochrome P450SU1. The cells were prepared as described above in Example 5 and the concentrations of the sulfonylurea compound 10006 and its metabolites 10007, 10008 or 10009 were determined.
(§3) S. lividans transformed with pCAO200SU2-FeS-A#11 and S. lividans transformed with pCAO200 were cultured for 36 hours in 400 ml of YEME broth at 30° C. S. griseolus PH2001 (mutant without SU1) was cultured in 400 ml of sporulation broth at 30° C. Nine hours before harvesting the cells, the S. griseolus PH2001 culture was divided into two 200 ml cultures. Both received 100 ml of fresh sporulation broth and one received 36 mg of 10001 to induce cytochrome P450SU2. The cells were prepared as described above in Example 6 and the concentrations of the sulfonylurea compound 10001 and its metabolites 10002 and 10003 were determined.

Series [2] relates to S. griseolus ATCC 11796 uninduced. Nature of the series: Sulfonylurea metabolism by washed cell suspension (Examples 5-9). In kind it is in vitro ADME, Streptomyces griseolus. The protocol:
Herbicides and their metabolites are measured by HPLC as described by Romesser et al., BBRC 140: 650-659 (1986), herein incorporated by reference, except that 0.1% H3 PO4 is used in both solvents. Chromatographic identity and quantitation of the herbicides and their resulting metabolites is determined by comparing them chromatographically with authentic standard compounds. Identity of the resulting metabolites is also confirmed by UV spectroscopy.
as §1, §2

The test system of series [3] is S. lividans pCAO200SU1-FeS-B#9. The series is described as follows: Sulfonylurea metabolism by washed cell suspension (Examples 6-9). In kind it is in vitro ADME, Streptomyces lividans.
Series [4] relates to S. griseolus PH2001 induced with 10001. The series is described as follows: Sulfonylurea metabolism by washed cell suspension (Examples 11-12). In kind it is in vitro ADME, Streptomyces griseolus. On the procedure:
as §1, §2, §3

In series [5] the test system is S. griseolus PH2001 uninduced. The series is described as above. In kind it is in vitro ADME, Streptomyces griseolus. On the procedure:
as §1, §2, §3

The test system of the next series is S. griseolus PH3826. The series is described as follows: Metabolism of 10001 by strains transformed with pPAT108 (Example 14). As to conditions: substrate 10001 120 ug/ml. The series is classed as in vitro ADME, Streptomyces griseolus. The protocol:
(§4) S. griseolus PH2003, S. griseus PH4001, S. ambofaciens PH4002, and S. lividans JI1326 were transformed with the plasmid pPAT108. The transformed S. griseolus strain, PH3826, was cultured for 24 hours in 150 mls of sporulation broth with 5 ug/ml thiostrepton. The transformed S. griseus strain, PH3832, and the transformed S. ambofaciens strain, PH3834, were cultured for 24 hours in 150 mls of trypticase soy broth with 5 ug/ml thiostrepton. The transformed S. lividans strain, PH3822, was similarly cultured in 150 mls of YEME broth with 5 ug/ml thiostrepton. Three hours before harvesting the cells, 50 mls of fresh medium of the same type with 5 ug/ml thiostrepton was added to each culture. The cells from each of the cultures were harvested by centrifugation, washed twice with 50 mMMOPS, pH7.2 and resuspended in five cell volumes of MOPS containing 0.2% glucose and 120 ug/ml of the sulfonylurea 10001. The cell suspensions were incubated at 30° C. with shaking and aliquots were removed at 0.5, 1, 2 and 4 hours. The supernatant of each aliquot was analyzed by HPLC and the concentration of the sulfonylurea compound 10001 and its metabolites 10002 and 10003 were determined.

The subject of another series is S. griseus PH3817. The series is described as follows: Metabolism of 10001 by strains transformed with pCS325 (Example 15). The series is classed as in vitro ADME, Streptomyces griseus. As to conditions: substrate 10001. On the procedure: as §4
S. griseolus PH2003, S. griseus PH4001, S. ambofaciens PH4002, and S. lividans JI1326 were transformed with the plasmid pCS325. Cells of the transformed strains of S. griseolus PH3809, S. griseus PH3817, S. ambofaciens PH3818, and S. lividans PH3816, were grown and treated as described in Example 14, and the concentrations of the sulfonylurea compound 10001 and its metabolites 10002 and 10003 were determined.

The subject of another series is S. lividans pCAO200. Nature of the series: Sulfonylurea metabolism by washed cell suspension (Examples 6-9). The series is classed as in vitro ADME, Streptomyces lividans.

SMILES strings stand for the structures.

For the compound `CCOC(=O)c1ccccc1S(=O)(=O)NC(=O)Nc1nc(Cl)cc(OC)n1` [compound 10001, N-[(4-chloro-6-methoxy-pyrimidin-2-yl)aminocarbonyl]-2-ethoxycarbonylbenzenesulfonamide], the concentration in supernatant in series [1] (Example 8, substrate 10001) was found to be 291 µM; in series [1] (Example 11, substrate 10001) it was 279 µM; in series [2] (substrate 10001, 2 h) it was 244 µM; in series [2] (substrate 10001, 4 h), 167 µM; in series [2] (substrate 10001, 6 h) it was 86 µM; in series [3] (substrate 10001, 2 h), 28 µM. In addition, the concentration in supernatant in series [3] (substrate 10001, 4 h) is 0 µM; in series [3] (substrate 10001, 6 h), 0 µM; in series [4] (substrate 10001, 2 h) it was 286 µM; in series [4] (substrate 10001, 4 h) it was 256 µM; in series [4] (substrate 10001, 6 h), 234 µM; in series [5] (substrate 10001, 2 h) it was 271 µM. Further, the concentration in supernatant in series [5] (substrate 10001, 4 h) worked out at 264 µM; in series [5] (substrate 10001, 6 h), 244 µM; with S. griseolus PH3826 (0.5 h) it was 222 µM; in the series with S. griseolus PH3826 (1.0 h), 137 µM; in the series on S. griseolus PH3826 (2.0 h) it was 19 µM; in the series with S. griseolus PH3826 (4.0 h), 0 µM. Also, the concentration in supernatant in the series on S. griseus PH3817 (0.5 h) came out at 226 µM; in the series on S. griseus PH3817 (1.0 h), 181 µM; in the series on S. griseus PH3817 (2.0 h), 69 µM; with S. griseus PH3817 (4.0 h), 0 µM; in the series with S. lividans pCAO200 (substrate 10001, 2 h), 301 µM; with S. lividans pCAO200 (substrate 10001, 4 h) it was 287 µM. The same compound came in with a concentration in supernatant in the series with S. lividans pCAO200 (substrate 10001, 6 h) of 313 µM.
As for `CCOC(=O)c1ccccc1S(=O)(=O)NC(=O)Nc1nc(O)cc(Cl)n1` [compound 10002, N-[(4-chloro-6-hydroxy-pyrimidin-2-yl)aminocarbonyl]-2-ethoxycarbonylbenzenesulfonamide], the concentration in supernatant was 105 µM in series [3] (substrate 10001, 2 h); 116 µM in series [3] (substrate 10001, 4 h); 112 µM in series [3] (substrate 10001, 6 h); 41 µM with S. griseolus PH3826 (0.5 h); 101 µM in the series on S. griseolus PH3826 (1.0 h); 171 µM with S. griseolus PH3826 (2.0 h). The concentration in supernatant in the series on S. griseolus PH3826 (4.0 h) came out at 189 µM; in the series with S. griseus PH3817 (0.5 h), 37 µM; with S. griseus PH3817 (1.0 h), 73 µM; in the series on S. griseus PH3817 (2.0 h), 167 µM; in the series with S. griseus PH3817 (4.0 h), 220 µM; with S. lividans pCAO200 (substrate 10001, 2 h) it was 2 µM. Besides, the concentration in supernatant came to 1 µM in the series on S. lividans pCAO200 (substrate 10001, 4 h) and 2 µM with S. lividans pCAO200 (substrate 10001, 6 h).
Consider `COc1cc(Cl)nc(NC(=O)NS(=O)(=O)c2ccccc2C(=O)O)n1` [compound 10003, N-[(4-chloro-6-methoxy-pyrimidin-2-yol)aminocarbonyl]-2-carboxybenzenesulfonamide], for which the concentration in supernatant was found to be 0 µM in series [1] (Example 8, substrate 10001); 0 µM in series [1] (Example 11, substrate 10001); 14 µM in series [2] (substrate 10001, 2 h); 37 µM in series [2] (substrate 10001, 4 h); 62 µM in series [2] (substrate 10001, 6 h); 86 µM in series [3] (substrate 10001, 2 h). Further, the concentration in supernatant in series [3] (substrate 10001, 4 h) stood at 95 µM; in series [3] (substrate 10001, 6 h), 94 µM; in series [4] (substrate 10001, 2 h), 7 µM; in series [4] (substrate 10001, 4 h) it was 10 µM; in series [4] (substrate 10001, 6 h), 13 µM; in series [5] (substrate 10001, 2 h) it was 1 µM. The concentration in supernatant in series [5] (substrate 10001, 4 h) worked out at 2 µM; in series [5] (substrate 10001, 6 h), 3 µM; in the series with S. griseolus PH3826 (0.5 h) it was 22 µM; in the series with S. griseolus PH3826 (1.0 h), 58 µM; with S. griseolus PH3826 (2.0 h), 97 µM; in the series on S. griseolus PH3826 (4.0 h) it was 107 µM. The concentration in supernatant was determined as 3 µM in the series with S. griseus PH3817 (0.5 h); 7 µM with S. griseus PH3817 (1.0 h); 16 µM in the series on S. griseus PH3817 (2.0 h); 23 µM in the series with S. griseus PH3817 (4.0 h); 1 µM in the series with S. lividans pCAO200 (substrate 10001, 2 h); 1 µM in the series on S. lividans pCAO200 (substrate 10001, 4 h). The compound further had a concentration in supernatant in the series with S. lividans pCAO200 (substrate 10001, 6 h) of 2 µM.
With `COC(=O)c1ccccc1S(=O)(=O)NC(=O)Nc1nc(C)cc(C)n1` [compound 10010, N-[(4,6-dimethylpyrimidin-2-yl)aminocarbonyl]-2-methoxycarbonylbenzenesulfonamide], the concentration in supernatant in series [1] (Example 7, substrate 10010) was 87 µM; in series [1] (Example 12, substrate 10010), 88 µM; in series [2] (substrate 10010, 2 h), 70 µM; in series [2] (substrate 10010, 4 h) it was 49 µM; in series [2] (substrate 10010, 6 h) it was 37 µM; in series [3] (substrate 10010, 2 h) it was 35 µM. The concentration in supernatant in series [3] (substrate 10010, 4 h) amounted to 11 µM; in series [3] (substrate 10010, 6 h) it was 4 µM; in series [4] (substrate 10010, 2 h), 64 µM; in series [4] (substrate 10010, 4 h), 56 µM; in series [4] (substrate 10010, 6 h), 50 µM; in series [5] (substrate 10010, 2 h) it was 89 µM. Moreover, the concentration in supernatant turned out to be 88 µM in series [5] (substrate 10010, 4 h); 89 µM in series [5] (substrate 10010, 6 h); 90 µM with S. lividans pCAO200 (substrate 10010, 2 h); 89 µM with S. lividans pCAO200 (substrate 10010, 4 h); 89 µM with S. lividans pCAO200 (substrate 10010, 6 h).

The record behind these values is US5349127A, “Expression of herbicide metabolizing cytochromes P450” (priority 1992, dated 1994).
